Results taken from publication PMC12386351, “Monoterpene Indole Alkaloids with Antimicrobial Activity Against Helicobacter pylori” (International Journal of Molecular Sciences, 2025).
Values after ≈ are worked out from the molar mass of the structure shown. “Also recorded” adds a separate entry of the source. Where two headings read alike, the source gives them in different places.

Columns and labels:
[1] = test system: H. pylori reference strain J99; assay: MIC and MBC by microdilution against H. pylori reference strain J99; assay type: cell-based, Helicobacter pylori; conditions: for MBC: (-) = MBC not determined, as bacterial growth was observed at all tested concentrations (up to 20 µM)
Experimental: To evaluate the activity of the natural products library, in vitro assays were conducted to determine the MIC and MBC against the H. pylori reference strain J99. […] The microplates were then incubated at 37 °C in microaerophilic conditions for 48 h with agitation of 140 rpm. After incubation, the optical density was read at 600 nm (BioTek Epoch2, Agilent, Winooski, VT, USA). All assays were performed in duplicate. DMSO at a concentration of 1% (v/v) was included as a negative control to assess the baseline effect of the solvent, in which bacterial growth was expected, while kanamycin (Sigma-Aldrich, St. Louis, MO, USA) at a concentration of 8 µg/mL was used as a positive control to provide a benchmark for effective antibacterial activity. MIC values were defined as the lowest concentration of a compound that inhibited the growth of H. pylori. MBC values were determined by plating 5 µL aliquots of each dilution onto H. pylori-selective medium, followed by incubation as described above. MBC was defined as the lowest concentration of a compound that rendered no visible colony formation on the solid medium, indicating bactericidal activity.

[2] = MTT cytotoxicity assay on VERO cells; assay type: cell-based; conditions: African green monkey, MTT, 80 to 10 µM
Experimental: (§1) The cytotoxicity of the compounds showing antibacterial activity was evaluated in VERO cell cultures (FTVE, Vircell, S.L., Granada, Spain) using the standard MTT colorimetric assay. Briefly, sub confluent cell cultures were exposed for 48 h, to 2-fold dilutions of each assayed compound, ranging from 80 to 10 µM, in 100 μL CO2-independent medium supplemented with 5% FBS and […] gentamicin (Gibco^TM, Grand Island, NY, USA) (CO2-ind-FBS5). In each assay, cells exposed to equivalent concentrations of DMSO as solvent and untreated cells were kept as controls; untreated cells were considered the baseline for 100% viability.
(§2) After 48-h incubation at 37 °C, the culture medium was replaced by fresh CO2-ind-FBS5 medium supplemented with 0.5 mg/mL MTT (Thermo Fisher Scientific, Waltham, MA, USA). Upon a 3-h incubation at 37 °C, the medium was carefully discarded, and the purple formazan crystals formed were dissolved in DMSO (100 μL/well) during a 15-min incubation with agitation at room temperature, followed by absorbance reading at 570 nm, with reference wavelength at 630 nm (BioTek Epoch2, Agilent, Winooski, VT, USA). Data analysis and visualization were performed using Excel (v.2408) and RStudio (v. 2024.04.2). When possible, the half maximal cytotoxic concentration (CC50) values were determined for each compound by fitting a dose–response three- or four-parameter log-logistic function to the triplicate experimental points using RStudio (v.2024.04.2).
(§3) The selectivity index (SI) is the ratio of the cytotoxic concentration for 50% of the cells (CC50) to the inhibitory concentration for 50% of the bacteria (IC50). Considering that IC50 values were not calculated, but are expectably lower than the MIC value, the SI was estimated by dividing the CC50 by the MIC. Therefore, this value is necessarily lower than the SI because the MIC, rather than the bacterial half-maximal inhibitory concentration (IC50), was used in the calculation. This approach allows for an estimation of the therapeutic potential of the compound by providing an indication of its selectivity for targeting bacterial cells over host cells, even though the MIC is used instead of the bacterial IC50.
(§4) To compare biofilm formation between groups (negative control, H. pylori J99, and compound treatments), one-way analysis of variance (ANOVA) was performed, followed by Tukey’s post-hoc test for multiple comparisons. Data analysis was conducted using Python 3.13.5. Similarly, for the cytotoxicity assay in VERO cells, ANOVA and Tukey’s post-hoc test were also used to compare groups at each tested concentration (ranging from 80 to 10 µM), with DMSO-treated and untreated cells as reference groups.

[3] = test system: VERO cells; assay: MTT cytotoxicity assay on VERO cells; assay type: cell-based; conditions: 48 h, 10 to 80 µM, versus DMSO and untreated controls
Experimental: as §1, §2, §3, §4

[4] = Helicobacter pylori, H. pylori J99, 48 h, 2-fold dilutions 20 to 0.625 µM
[5] = Helicobacter pylori, H. pylori J99, read-out: MBC
[6] = Helicobacter pylori, H. pylori J99, after conversion from µM to µg/mL

With CCC1CN(C)C2Cc3c([nH]c4ccccc34)C(=NN=CC=Cc3ccccc3)CC1C2C(=O)OC (centres unmarked) [Compound 3, Dregamine(phenylallylidene)hydrazone] the MBC ([1]; H. pylori J99) was 20 (20) µM, the MIC [1, 4] was 20 µM and the MBC [1, 5] was 20 µM (≈ 9.65 µg/mL). For the same compound, the MIC [1, 6] was 9.65 µg/mL and the CC50 at 48 h [2] was 44.1 ± 2.4 µM.
Work on CCC1CN(C)C2Cc3c([nH]c4ccccc34)C(=NN=Cc3c[nH]c4ccccc34)CC1C2C(=O)OC (centres unmarked) [Compound 4, Dregamine(indolylmethylene)hydrazone] yielded an MIC [1, 4] of 10 µM, an MIC [1, 6] of 4.96 µg/mL and a CC50 at 48 h [2] of 47 ± 2.2 µM.
CCC1CN(C)C2Cc3c([nH]c4ccccc34)C(=NN=Cc3ccccc3O)CC1C2C(=O)OC (centres unmarked) [Compound 5, Dregamine(2′-hydroxybenzylidene)hydrazone] gave an MIC [1, 4] of 20 µM, an MIC [1, 6] of 9.45 µg/mL and a CC50 at 48 h [2] of 55.8 ± 4.5 µM.
CCC1CN(C)C2Cc3c([nH]c4ccccc34)C(=NN=Cc3c[nH]c4cc(Br)ccc34)CC1C2C(=O)OC (centres unmarked) [Compound 6, Dregamine(6′bromo-3′indolylmethylene)hydrazone] showed an MIC [1, 4] of 10 µM, an MBC [1, 5] of 20 µM (≈ 11.5 µg/mL) and an MIC [1, 6] of 5.75 µg/mL. The “Effect on cell viability (MTT)” value [3] was “only a slight decrease in cell viability; also recorded: did not induce significant cytotoxicity at any tested concentration” and the CC50 at 48 h [2] was greater than 80 µM.
In the case of CCC1CN(C)C2Cc3c([nH]c4ccccc34)C(c3c(OC)ccc4c5c([nH]c34)C3(C(=O)OC)CC4CC(CC)C3N(CC5)C4CC(C)=O)CC1C2C(=O)OC (centres unmarked) [Compound 7, Tabernaelegantinine A], the MIC [1, 4] is reported as 20 µM, the MIC [1, 6] is reported as 15.2 µg/mL and the “Effect on cell viability (MTT)” value [3] is reported as “only a slight decrease in cell viability; also recorded: significant effects only at 80 µM”. It also gave a CC50 at 48 h [2] greater than 80 µM.
